Assay results: PubChem BioAssay AID1963971 (Molecular Pharmacology Branch, DTP, NCI, 2024)

Test system: 953936-095-R-J2-PDC spheroids with HUVEC/MSC, viability
Assay: Anticancer human tumor 953936-095-R-J2-PDC patient-derived cervical squamous cell carcinoma cell line growth inhibition [PI3K]
Details: for IC50: curve of first compound; for viability, T/C: stronger effect = lower value; active = viability on the fitted dose curve at most 10% of control; inactive = the rest
Method in brief: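 Tumor cells grown as multi-cell spheroids with HUVEC endothelial cells and MSC fibroblast-like stroma were treated with targeted agents combined with inavolisib, alpelisib, duvelisib or copanlisib. Doses fell in half-log steps from near clinical Cmax, else from 10 microM. Viability was measured.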

[1] = second compound 0.0316 µM, first compound 0.0316 µM
[2] = second compound 0.0316 µM, first compound 0.1 µM
[3] = second compound 0.0316 µM, first compound 0.316 µM
[4] = second compound 0.0316 µM, first compound 1 µM
[5] = second compound 0.0316 µM, first compound 3.16 µM
[6] = second compound 0.0316 µM, first compound 10 µM
[7] = second compound 0.1 µM, first compound 0.0316 µM
[8] = second compound 0.1 µM, first compound 0.1 µM
[9] = second compound 0.1 µM, first compound 0.316 µM
[10] = second compound 0.1 µM, first compound 1 µM
[11] = second compound 0.1 µM, first compound 3.16 µM
[12] = second compound 0.1 µM, first compound 10 µM
[13] = second compound 0.316 µM, first compound 0.0316 µM
[14] = second compound 0.316 µM, first compound 0.1 µM
[15] = second compound 0.316 µM, first compound 0.316 µM
[16] = second compound 0.316 µM, first compound 1 µM
[17] = second compound 0.316 µM, first compound 3.16 µM
[18] = second compound 0.316 µM, first compound 10 µM
[19] = second compound 1 µM, first compound 0.0316 µM
[20] = second compound 1 µM, first compound 0.1 µM
[21] = second compound 1 µM, first compound 0.316 µM
[22] = second compound 1 µM, first compound 1 µM
[23] = second compound 1 µM, first compound 3.16 µM
[24] = second compound 1 µM, first compound 10 µM
[25] = second compound 3.16 µM, first compound 0.0316 µM
[26] = second compound 3.16 µM, first compound 0.1 µM
[27] = second compound 3.16 µM, first compound 0.316 µM
[28] = second compound 3.16 µM, first compound 1 µM
[29] = second compound 3.16 µM, first compound 3.16 µM
[30] = second compound 3.16 µM, first compound 10 µM
[31] = second compound 10 µM, first compound 0.0316 µM
[32] = second compound 10 µM, first compound 0.1 µM
[33] = second compound 10 µM, first compound 0.316 µM
[34] = second compound 10 µM, first compound 1 µM
[35] = second compound 10 µM, first compound 3.16 µM
[36] = second compound 10 µM, first compound 10 µM
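Also: spheroids exposed to compounds for seven days before read-out.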

C=CC(=O)N1CCN(c2nc(=O)n(-c3c(C)ccnc3C(C)C)c3nc(-c4c(O)cccc4F)c(F)cc23)C(C)C1 (stereo not drawn) + Cc1nc(NC(=O)N2CCCC2C(N)=O)sc1-c1ccnc(C(C)(C)C(F)(F)F)c1
> 10000 nM: IC50 (second compound 0.0316 µM) | IC50 (second compound 0.1 µM) | IC50 (second compound 0.316 µM)
< 31.6 nM: IC50 (second compound 1 µM) | IC50 (second compound 3.16 µM) | IC50 (second compound 10 µM)
inactive: viability, T/C [1] 85.5% | viability, T/C [2] 89.2% | viability, T/C [3] 95.8% | viability, T/C [4] 109% | viability, T/C [5] 110% | viability, T/C [6] 105% | viability, T/C [7] 81.9% | viability, T/C [8] 83.7% | viability, T/C [9] 90.2% | viability, T/C [10] 98.6% | viability, T/C [11] 123% | viability, T/C [12] 117% | viability, T/C [13] 64.5% | viability, T/C [14] 65.7% | viability, T/C [15] 68.8% | viability, T/C [16] 86% | viability, T/C [17] 84.4% | viability, T/C [18] 73.7% | viability, T/C [19] 46% | viability, T/C [20] 52.1% | viability, T/C [21] 47.7% | viability, T/C [22] 51.5% | viability, T/C [23] 55.9% | viability, T/C [24] 48% | viability, T/C [25] 27% | viability, T/C [26] 27.8% | viability, T/C [27] 27% | viability, T/C [28] 32.8% | viability, T/C [29] 33.4% | viability, T/C [30] 26.1% | viability, T/C [31] 11.5% | viability, T/C [32] 11.8% | viability, T/C [33] 11.9% | viability, T/C [34] 11.9% | viability, T/C [35] 10.8% | viability, T/C [36] 7.49%

CCN1CCN(Cc2ccc(Nc3ncc(F)c(-c4cc(F)c5nc(C)n(C(C)C)c5c4)n3)nc2)CC1 + Cc1nc(NC(=O)N2CCCC2C(N)=O)sc1-c1ccnc(C(C)(C)C(F)(F)F)c1
> 1000 nM: IC50 (second compound 0.0316 µM) | IC50 (second compound 0.1 µM) | IC50 (second compound 0.316 µM)
inactive: viability, T/C (second compound 0.0316 µM, first compound 0.00316 µM) 89.8% | viability, T/C (second compound 0.0316 µM, first compound 0.01 µM) 93.8% | viability, T/C [1] 88% | viability, T/C [2] 88.6% | viability, T/C [3] 87.1% | viability, T/C [4] 75.5% | viability, T/C (second compound 0.1 µM, first compound 0.00316 µM) 84.8% | viability, T/C (second compound 0.1 µM, first compound 0.01 µM) 83.4% | viability, T/C [7] 83.4% | viability, T/C [8] 78.3% | viability, T/C [9] 76% | viability, T/C [10] 73.4% | viability, T/C (second compound 0.316 µM, first compound 0.00316 µM) 66.3% | viability, T/C (second compound 0.316 µM, first compound 0.01 µM) 63.4% | viability, T/C [13] 65.9% | viability, T/C [14] 55.8% | viability, T/C [15] 58.6% | viability, T/C [16] 53% | viability, T/C (second compound 1 µM, first compound 0.00316 µM) 47.6% | viability, T/C (second compound 1 µM, first compound 0.01 µM) 46% | viability, T/C [19] 43.7% | viability, T/C [20] 41.8% | viability, T/C [21] 38.3% | viability, T/C [22] 36.7% | viability, T/C (second compound 3.16 µM, first compound 0.00316 µM) 26.6% | viability, T/C (second compound 3.16 µM, first compound 0.01 µM) 26.3% | viability, T/C [25] 24.4% | viability, T/C [26] 23.6% | viability, T/C [27] 23.3% | viability, T/C [28] 22.2% | viability, T/C (second compound 10 µM, first compound 0.00316 µM) 10.8% | viability, T/C (second compound 10 µM, first compound 0.01 µM) 11.2% | viability, T/C [31] 10.5% | viability, T/C [32] 9.34% | viability, T/C [33] 9.59% | viability, T/C [34] 11.1%
< 3.16 nM: IC50 (second compound 1 µM) | IC50 (second compound 3.16 µM) | IC50 (second compound 10 µM)

Cn1ncc(Cl)c1-c1cc(C(=O)NC(CN)Cc2cccc(F)c2)sc1Cl (stereo not drawn) + Cc1nc(NC(=O)N2CCCC2C(N)=O)sc1-c1ccnc(C(C)(C)C(F)(F)F)c1
378 nM: IC50 (second compound 0.0316 µM)
< 31.6 nM: IC50 (second compound 1 µM) | IC50 (second compound 3.16 µM) | IC50 (second compound 10 µM)
active: viability, T/C [24] 6.42% | viability, T/C [29] 8.24% | viability, T/C [30] 4.61% | viability, T/C [33] 11.5% | viability, T/C [34] 8.02% | viability, T/C [35] 4.99% | viability, T/C [36] 1.1%
165 nM: IC50 (second compound 0.316 µM)
inactive: viability, T/C [1] 76.7% | viability, T/C [2] 75.7% | viability, T/C [3] 50.5% | viability, T/C [4] 32.2% | viability, T/C [5] 17.5% | viability, T/C [6] 12.8% | viability, T/C [7] 79.4% | viability, T/C [8] 77.3% | viability, T/C [9] 53.2% | viability, T/C [10] 28.9% | viability, T/C [11] 16.6% | viability, T/C [12] 9.11% | viability, T/C [13] 60.4% | viability, T/C [14] 56.8% | viability, T/C [15] 41.8% | viability, T/C [16] 23.9% | viability, T/C [17] 13.9% | viability, T/C [18] 9.97% | viability, T/C [19] 43.5% | viability, T/C [20] 40% | viability, T/C [21] 32.1% | viability, T/C [22] 19.2% | viability, T/C [23] 11.3% | viability, T/C [25] 25.1% | viability, T/C [26] 24% | viability, T/C [27] 19.2% | viability, T/C [28] 13.6% | viability, T/C [31] 11.2% | viability, T/C [32] 10.5%
392 nM: IC50 (second compound 0.1 µM)

Cn1nccc1Nc1nccc(-c2ccn(C(CO)c3ccc(Cl)c(F)c3)c(=O)c2)n1 (stereo not drawn) + Cc1nc(NC(=O)N2CCCC2C(N)=O)sc1-c1ccnc(C(C)(C)C(F)(F)F)c1
> 10000 nM: IC50 (second compound 0.0316 µM) | IC50 (second compound 0.1 µM) | IC50 (second compound 0.316 µM)
active: viability, T/C [32] 9.37% | viability, T/C [33] 6.34% | viability, T/C [34] 4.57% | viability, T/C [35] 3.58% | viability, T/C [36] 1.86%
inactive: viability, T/C [1] 77.7% | viability, T/C [2] 89.9% | viability, T/C [3] 78.3% | viability, T/C [4] 69.5% | viability, T/C [5] 72.9% | viability, T/C [6] 67.1% | viability, T/C [7] 77.1% | viability, T/C [8] 76.3% | viability, T/C [9] 66.7% | viability, T/C [10] 74.3% | viability, T/C [11] 63% | viability, T/C [12] 68.5% | viability, T/C [13] 63.3% | viability, T/C [14] 55.9% | viability, T/C [15] 52.6% | viability, T/C [16] 56.4% | viability, T/C [17] 57.7% | viability, T/C [18] 52.6% | viability, T/C [19] 45.3% | viability, T/C [20] 39.7% | viability, T/C [21] 38.8% | viability, T/C [22] 37.6% | viability, T/C [23] 40.1% | viability, T/C [24] 31.9% | viability, T/C [25] 23.5% | viability, T/C [26] 23.9% | viability, T/C [27] 21.1% | viability, T/C [28] 17.2% | viability, T/C [29] 15.2% | viability, T/C [30] 10.8% | viability, T/C [31] 11.4%
< 31.6 nM: IC50 (second compound 1 µM) | IC50 (second compound 3.16 µM) | IC50 (second compound 10 µM)
